The structures appear in SMILES notation.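 Dose response: 5 concentrations. Exposure: 48 h. Format: 96-well plates. Endpoint: linear interpolation; highest concentration if not reached. Abbreviation: GI50, concentration required for 50% inhibition of growth. TGI: concentration producing complete growth inhibition.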

The subject of assay [1] is P388/ADR leukemia. In words: NCI tumour cell line growth inhibition, 48 h.
Assay [2] concerns P388 leukemia. In words: NCI tumour cell line growth inhibition, 48 h.

Turning to `O=C(O)c1ccc(C(=O)O)c(C(=O)O)c1.[NH-]C1CCCCC1[NH-].[Pt+2]`, in assay [1], the GI50 is 2.15 µM and the TGI is over 100 µM. In assay [2], the GI50 is 0.262 µM and the TGI is 14.6 µM.

The values are drawn from PubChem BioAssay (NCI).
